Read-outs that look alike come from different tables or passages of the source. Bridges are numbered along the chain shown (N, C = ends). Where no end group is shown, it is not given here.
Target: T1, human C5 (Homo sapiens, UniProt P01031)
T1 construct: tissue TCS Biosciences (serum); host or cells: human serum
Assay: SPR multi-cycle kinetics, binding to C5
Conditions: for fold drop in affinity of alanine mutant: relative to unmodified K8 or K92, SPR multi-cycle kinetics, n = 3
Description: Kinetics were measured using a Biacore 8K (GE Healthcare, Amersham, UK) with a CM5 chip, which was prepared as follows: 1-ethyl-3-(−3-dimethylaminopropyl) carbodiimide hydrochloride (EDC)/N-hydroxysuccinimide (NHS) was mixed at 1:1 ratio (flow rate, 10 µL/min; contact time, 30 s), and human C5 at 1 µg/mL in pH 4.5 sodium acetate buffer was injected over flow cell one only (flow rate, 10 µL/min; contact time, 60 s). Final immobilisation levels in the range of 2000–3000 RUs were obtained to yield theoretical Rmax values of ~50–60 RU. […] After each injection, the surface was regenerated with two sequential injections of 2 M MgCl2 (flow rate, 30 µL/min; contact time, 30 s). Binding to the reference surface was subtracted, and the data were fitted to a single-site binding model using Biacore evaluation software.
Table 2.6. Validation of molecular interactions by peptide mutagenesis analysis.
Summary of SPR multi-cycle kinetics

[1] = Biacore 8K, HBS-EP pH 7.4, single-site model, mean of n=3, read-out: mean KD
[2] = pH 7.4, read-out: mean koff, Biacore 8K, HBS-EP pH 7.4, mean of n=3
[3] = pH 7.4, read-out: mean kon, Biacore 8K, CM5 chip, HBS-EP pH 7.4, mean of n=3

K92 F26A: alanine mutant of K92 (CPEGWSECGVAIYGYACGRWGCGHALNSGPNISP)
Kd [1]: 18.8 nM | Kd (replicate n=1, read-out: KD): 14.9 nM | Kd (replicate n=2, read-out: KD): 21.5 nM | Kd (replicate n=3, read-out: KD): 19.9 nM

K92 W21A: alanine mutant of K92 (CPEGWSECGVAIYGYACGRAGCGHFLNSGPNISP)
Kd [1]: 497 nM | Kd (replicate n=1, read-out: KD): 437 nM | Kd (replicate n=2, read-out: KD): 411 nM | Kd (replicate n=3, read-out: KD): 644 nM

SVCPDGFDWGYGCAAGSSRFCTRHDWCCYDEAADSHTYGFCTGNRVENLYFQ (disulfide 3-28, 13-21, 27-41 (inferred)) [K8 R31A]
mean stoich. ratio (Biacore 8K, mean of n=3): 0.75 | koff [2]: 0.00152 s⁻¹ | kon [3]: 462 M⁻¹ s⁻¹ | fold drop in affinity of alanine mutant: 715 -fold | koff (replicate n=1): 0.00182 s⁻¹ | kon (replicate n=1): 786 M⁻¹ s⁻¹ | stoich. ratio (replicate n=1): 0.36 | koff (replicate n=2): 0.00125 s⁻¹ | kon (replicate n=2): 336 M⁻¹ s⁻¹ | stoich. ratio (replicate n=2): 0.71 | koff (replicate n=3): 0.00149 s⁻¹ | kon (replicate n=3): 263 M⁻¹ s⁻¹ | stoich. ratio (replicate n=3): 1.18

SVCPDGFDWGYGCAAGSSRFCTAHDWCCYDERADSHTYGFCTGNRVENLYFQ (disulfide 3-28, 13-21, 27-41 (inferred)) [K8 R22A]
mean stoich. ratio (Biacore 8K, mean of n=3): 0.27 | koff [2]: 0.000599 s⁻¹ | kon [3]: 54000 M⁻¹ s⁻¹ | fold drop in affinity of alanine mutant: twofold decrease in affinity | koff (replicate n=1): 0.000565 s⁻¹ | kon (replicate n=1): 59200 M⁻¹ s⁻¹ | stoich. ratio (replicate n=1): 0.29 | koff (replicate n=2): 0.000672 s⁻¹ | kon (replicate n=2): 53500 M⁻¹ s⁻¹ | stoich. ratio (replicate n=2): 0.24 | koff (replicate n=3): 0.000561 s⁻¹ | kon (replicate n=3): 49400 M⁻¹ s⁻¹ | stoich. ratio (replicate n=3): 0.27

From publication PMC7972453, “The allosteric modulation of complement C5 by knob domain peptides” (eLife, 2021)
